Measured values published in US4656249A, “Peptides with relaxin activity” (Howard Florey Institute of Experimental Physiology and …, priority 1982, dated 1987).
Positions of bridges follow the written chain, without caps; N, C: chain ends. Residues, ends and D or L forms follow the SMILES beside them. Chains are numbered I, II in the order given. No end group written: not given here.

Tests used:
[1] = test system: rat uterine contractility; experiment: rat uterine contractility assay (bioassay of recombined relaxin peptides); format: cell-based; conditions: for Recombination Yield (by BIOASSAY), actual combination yield based on the B chain: combination of A and B chains, yield measured by bioassay; for Recombination Yield (by BIOASSAY), recalculated on the basis of 100% yield for the recombined natural A22 and B28 chains: relative to recombined natural A22 + B28 = 100%
Method: The recombination of the relaxin peptide chains was monitored by HPLC and radioimmunoassay using an antibody raised to native porcine relaxin A22B29 and I125 Bolton-Hunter labelled A22B29 tracer (16). The biological activity of the recombined products was assessed using the rat uterine contractility assay (18).
The biological activity of the synthetic relaxin peptides was tested in the rat uterine contractility assay (18).

[2] = solubility behaviour of relaxin B chain peptides in aqueous solution; format: physicochemical; conditions: crude synthetic B chain
From the text: We have carried out research into the chemical synthesis of relaxin and its structural analogues as part of a systematic study of the structure-function relationships in the hormone molecule. The purified separate chains of pig relaxin have been obtained in approximately 10% yield (based on crude). The major impurities in the synthetic peptides appear to have arisen through side-reactions of the cysteine residues occurring during the HF cleavage step. In more recent syntheses improved yields have been obtained using the HF stable S-ethyl mercapto protecting group for cysteine. […] Column chromatography on Sephadex, cellulose, polyamide or polystyrene resins results in virtually a complete loss of peptide by irreversible absorption (16). These properties have made purification of synthetic relaxin B chain peptides and their coupling to A chain particularly difficult.
As shown by FIG. 3(c), the CD spectra indicate that shortening to 25 residues results in a change of from the beta-configuration to an unordered conformation. This conformational change is reflected in an enhanced solubility of the peptide in aqueous solution, a loss of the adsorptive behaviour and an improvement in the combination yield with the A chain. Using the above-described method the combination yield rises to 10%. […]

Compound	Recombination Yield (by BIOASSAY), actual combination yield based on the B chain [1] [%]	Recombination Yield (by BIOASSAY), recalculated on the basis of 100% yield for the recombined natural A22 and B28 chains [1] [%]	pH at which the peptide is soluble [2]
CC[C@H](C)[C@@H]1NC(=O)[C@H](CC(=O)O)NC(=O)[C@H](CCCCN)NC(=O)[C@H](CCCNC(=N)N)NC(=O)[C@H]([C@@H](C)CC)NC(=O)[C@@H]2CSSC[C@H](NC(=O)[C@H](CCCCN)NC(=O)[C@H](CCC(=O)O)NC(=O)[C@H](CO)NC(=O)[C@@H](N)CC(C)C)C(=O)N[C@@H](CSSC[C@H](NC(=O)[C@H](C)NC(=O)[C@H](CCCCN)NC(=O)[C@@H](NC(=O)[C@H](Cc3ccccc3)NC(=O)[C@H](CC(=O)O)NC(=O)[C@H](CC(N)=O)NC(C)=O)[C@@H](C)CC)C(=O)NCC(=O)N[C@@H](CCCNC(=N)N)C(=O)N[C@@H](CCC(=O)O)C(=O)N[C@@H](CC(C)C)C(=O)N[C@@H](C(C)C)C(=O)N[C@@H](CCCNC(=N)N)C(=O)N[C@@H](CC(C)C)C(=O)N[C@@H](Cc3c[nH]c4ccccc34)C(=O)N[C@@H](C(C)C)C(=O)N[C@@H](CCC(=O)O)C(=O)N[C@@H]([C@@H](C)CC)C(=O)N[C@H](C(=O)NCC(N)=O)CSSC[C@@H](C(=O)O)NC(=O)[C@H](CC(C)C)NC(=O)[C@H](CCCNC(=N)N)NC(=O)[C@H](C)NC1=O)C(=O)N[C@@H](CCC(N)=O)C(=O)N[C@@H](C(C)C)C(=O)NCC(=O)N2 [SA (4-22) SB[N--acetyl](4-23)NH2] (I: Ac-NDFIKACGRELVRLWVEICG-NH2 / II: H-LSEKCCQVGCIRKDIARLC-OH; disulfide I:7-II:6, I:19-II:19, II:5-II:10)	1.3	5	–
B(1-29): synthetic porcine relaxin B chain of 29 residues (B chain of CMa')	–	–	> 5.5
I: RMTLSEKCCQVGCIRKDIARLC / II: Ac-NDFIKACGRELVRLWVEICG-NH2 (disulfide I:8-I:13, I:9-II:7, I:22-II:19) [SA (1-22) SB[N--acetyl](4-23)NH2]	2.4	10	–
